Measurements reported in patent US20240301319A1, “PERFUMING COMPOSITIONS” (FIRMNICH SA, priority 2017, published 2024).
Read-outs that look alike come from different tables or passages of the source.

Experiments:
[1] = Volatility of perfuming compounds (Tables 4 to 10), with top/middle/bottom note type; format: physicochemical
In short: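 Note type follows from air volatility (μg/l): bottom 49–0.1, middle 99–50, top 70,000–100. Compounds are listed within watery, green, fruity, citrus, sweet, gourmand and woody families.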

[2] = Odor threshold and odor value of perfuming compounds (Tables 4 to 10)
[3] = Table 4, watery note, top, middle or bottom note
[4] = note type (Top/Middle/Bottom) by volatility, perfuming compounds having a green note
[5] = perfuming compounds having a green note
[6] = Table 4, watery note, equals volatility divided by odor threshold
[7] = Table 6, perfuming compounds having a fruity note
[8] = Table 6, perfuming compounds having a fruity note, note type by volatility
[9] = Table 7, citrus note, top, middle or bottom note
[10] = Table 7, citrus note, equals volatility divided by odor threshold
[11] = Table 10, perfuming compounds having a woody note, note type by volatility
[12] = Table 8, perfuming compounds having a sweet note

| Type [1, 4] | Volatility (μg/l air) [1, 5] [μg/l air] | Volatility [1, 7] [μg/l air] | Type [1, 8] | Compound | Odor Threshold (μg/l air) [2, 5] [μg/l air] | Odor Threshold [2, 7] [μg/l air] | Odor Value [2, 7] | further results |
| --- | --- | --- | --- | --- | --- | --- | --- | --- |
| Middle | 98.76 | – | – | CC/C=C\CC/C=C/CO [(2E,6Z)-2,6-NONADIEN-1-OL] | 3.22E−06 | – | – | Volatility (μg/l air) ([1]; Table 4, watery note): 98.76 μg/l air; Type [1, 3]: middle (perfuming compounds having a volatility ranging from 99 to 50 μg/l in air are referred to as “middle notes”); Odor Threshold (μg/l air) ([2]; Table 4, watery note): 3.22E−06 μg/l air; Odor Value [2, 6]: 3.07E+07 |
| Top | 632.43 | – | – | CC/C=C\CC/C=C/C=O [(2E,6Z)-2,6-NONADIENAL] | 1.46E−04 | – | – | – |
| Bottom | 11.05 | 11.05 | Bottom | CC/C=C\CCOC(=O)c1ccccc1 [(3Z)-3-hexen-1-yl benzoate] | 4.37E−02 | 4.37E−02 | 2.53E+02 | Volatility (μg/l air) ([1]; Table 7, citrus note): 11.05 μg/l air; Type [1, 9]: Bottom; Odor Threshold (μg/l air) ([2]; Table 7, citrus note): 4.37E−02 μg/l air; Odor Value [2, 10]: 2.53E+02 |
| Bottom | 4.34 | – | – | CC/C=C\CCOC(=O)c1ccccc1O [(3Z)-3-hexen-1-yl salicylate] | 3.23E−04 | – | – | – |
| Top | 3752.17 | – | – | CCC/C=C/CO [(E)-2-HEXEN-1-OL] | 1.29E−01 | – | – | – |
| Middle | 79.23 | – | Middle | CC(=O)OC/C=C(\C)CCC=C(C)C [(E)-3,7-DIMETHYL-2,6-OCTADIENYL ACETATE] | 3.57E−02 | 3.57E−02 | – | – |
| Top | 5986.62 | – | – | CC/C=C\CCO [(Z)-3-HEXEN-1-OL] | 1.13E−02 | – | – | – |
| Top | 3398.34 | – | – | CC/C=C\CCOC(C)=O [(Z)-3-HEXENYL ACETATE] | 1.00E−02 | – | – | – |

More lines, now with the values behind:

| Compound | Type [1, 4] | Volatility (μg/l air) [1, 5] [μg/l air] | Volatility [1, 7] [μg/l air] | Type [1, 8] | Odor Threshold (μg/l air) [2, 5] [μg/l air] | Odor Threshold [2, 7] [μg/l air] | Odor Value [2, 7] | further results |
| --- | --- | --- | --- | --- | --- | --- | --- | --- |
| CC1=CC2CC(C=O)C1CC2C(C)C (stereo not drawn) [8-ISOPROPYL-6-METHYL-BICYCLO[2.2.2]OCT-5-ENE-2-CARBALDEHYDE] | Top | 131.02 | – | – | 7.11E−05 | – | – | Volatility (μg/l air) ([1]; Table 4, watery note): 131.02 μg/l air; Type [1, 3]: TOP (perfuming compounds having a volatility ranging from 70,000 to 100 μg/l in air are referred to as “top notes”); Odor Threshold (μg/l air) ([2]; Table 4, watery note): 7.11E−05 μg/l air; Odor Value [2, 6]: 1.84E+06 |
| C=CCCCCCCCCO [9-DECEN-1-OL] | – | – | 26.88 | Bottom | – | 8.92E−03 | 3.01E+03 | Volatility (μg/l air) ([1]; Table 7, citrus note): 26.88 μg/l air; Type [1, 9]: Bottom; Odor Threshold (μg/l air) ([2]; Table 7, citrus note): 8.92E−03 μg/l air; Odor Value [2, 10]: 3.01E+03 |
| C=CCCCCCCCCC=O [10-undecenal] | – | – | – | – | – | – | – | Volatility (μg/l air) ([1]; Table 4, watery note): 136.73 μg/l air; Type [1, 3]: TOP (perfuming compounds having a volatility ranging from 70,000 to 100 μg/l in air are referred to as “top notes”); Odor Threshold (μg/l air) ([2]; Table 4, watery note): 3.15E−03 μg/l air; Odor Value [2, 6]: 4.34E+04 |
| C[C@@H]1CC[C@@H](C(C)(C)S)C(=O)C1 [(1R,4R)-8-MERCAPTO-3-P-MENTHANONE] | Top | 155.12 | 155.12 | TOP (perfuming compounds having a volatility ranging from 70,000 to 100 μg/l in air are referred to as “top notes”) | 3.43E−05 | – | – | – |
| CC(C)OCCc1ccccc1 [(2-ISOPROPOXYETHYL)BENZENE] | Top | – | – | – | 1.65E−03 | – | – | Volatility (μg/l air) [1]: 1714.82 μg/l air |
| CCC/C=C/C=O [(2E)-2-HEXENAL] | Top | 33708.26 | 33708.26 | TOP (perfuming compounds having a volatility ranging from 70,000 to 100 μg/l in air are referred to as “top notes”) | 2.53E−03 | – | – | Volatility (μg/l air) ([1]; Table 7, citrus note): 33708.26 μg/l air; Type [1, 9]: Top; Odor Threshold (μg/l air) ([2]; Table 7, citrus note): 2.53E−03 μg/l air; Odor Value [2, 10]: 1.33E+07 |
| CCCCCC/C(C=O)=C\c1ccccc1 [(2E)-2-benzylideneoctanal] | Bottom | 1.15 | 1.15 | Bottom | 1.91E−03 | 1.91E−03 | 6.01E+02 | – |
| CC/C=C\CC/C=C/C=O [(2E,6Z)-2,6-NONADIENAL″] | – | – | – | – | – | – | – | Volatility (μg/l air) ([1]; Table 4, watery note): 632.43 μg/l air; Type [1, 3]: TOP (perfuming compounds having a volatility ranging from 70,000 to 100 μg/l in air are referred to as “top notes”); Odor Threshold (μg/l air) ([2]; Table 4, watery note): 1.46E−04 μg/l air; Odor Value [2, 6]: 4.34E+06 |
| CC(=O)OC/C=C(/C)CCC=C(C)C [(2Z)-3,7-dimethyl-2,6-octadien-1-yl acetate] | – | – | 123.21 | TOP (perfuming compounds having a volatility ranging from 70,000 to 100 μg/l in air are referred to as “top notes”) | – | 6.02E−02 | 2.05E+03 | Volatility (μg/l air) ([1]; Table 4, watery note): 123.21 μg/l air; Type [1, 3]: TOP (perfuming compounds having a volatility ranging from 70,000 to 100 μg/l in air are referred to as “top notes”); Odor Threshold (μg/l air) ([2]; Table 4, watery note): 6.02E−02 μg/l air; Odor Value [2, 6]: 2.05E+03 |
| CC(=O)/C=C/C1=C(C)CCCC1(C)C [(3E)-4-(2,6,6-trimethyl-1-cyclohexen-1-yl)-3-buten-2-one] | – | – | – | – | – | – | – | Type [1, 11]: Bottom; Volatility ([1]; Table 10, woody note): 35.41 μg/l air; Odor Threshold ([2]; Table 10, woody note): 3.58E−05 μg/l air |
| CC/C=C\CCOC(=O)C/C=C\CC [(3Z)-3-hexen-1-yl (3Z)-3-hexenoate] | Top | 210.68 | 210.68 | TOP (perfuming compounds having a volatility ranging from 70,000 to 100 μg/l in air are referred to as “top notes”) | 5.17E−02 | – | – | Volatility [1, 12]: 210.68 μg/l air; Type ([1]; Table 8, perfuming compounds having a sweet note, note type by volatility): Top; Volatility ([1]; Table 9, gourmand note): 210.68 μg/l air; Type ([1]; Table 9, perfuming compounds having a gourmand note, note type by volatility): Top; Odor Threshold [2, 12]: 5.17E−02 μg/l air; Odor Value [2, 12]: 4.08E+03; Odor Threshold ([2]; Table 9, gourmand note): 5.17E−02 μg/l air |
| CC/C=C\CCOC(=O)CCC [(3Z)-3-hexen-1-yl butyrate] | Top | 1674.15 | 1674.15 | TOP (perfuming compounds having a volatility ranging from 70,000 to 100 μg/l in air are referred to as “top notes”) | 7.85E−02 | – | – | – |
| CC/C=C\CCOC(=O)OC [(3Z)-hex-3-en-1-yl methyl carbonate] | Top | 1506.33 | 1506.33 | TOP (perfuming compounds having a volatility ranging from 70,000 to 100 μg/l in air are referred to as “top notes”) | 4.58E−02 | – | – | – |
| O=C1CCCCCCC/C=C/CCCCCCO1 [(10E)-oxacycloheptadec-10-en-2-one] | – | – | 0.74 | Bottom | – | 4.77E−04 | 1.55E+03 | Volatility (μg/l air) ([1]; Table 7, citrus note): 0.74 μg/l air; Type [1, 9]: Bottom; Odor Threshold (μg/l air) ([2]; Table 7, citrus note): 4.77E−04 μg/l air; Odor Value [2, 10]: 1.55E+03 |
| CCC/C=C/COC(C)=O [(E)-2-HEXENYL ACETATE] | Top | 6062.68 | 6062.68 | TOP (perfuming compounds having a volatility ranging from 70,000 to 100 μg/l in air are referred to as “top notes”) | 2.08E−01 | – | – | – |
| C/C=C/c1ccc(OC(C)=O)c(OC)c1 [(E)-2-METHOXY-4-(1-PROPENYL)PHENYL ACETATE] | – | – | 1.85 | Bottom | – | 4.08E−07 | 4.54E+06 | Volatility (μg/l air) ([1]; Table 7, citrus note): 1.85 μg/l air; Type [1, 9]: Bottom; Odor Threshold (μg/l air) ([2]; Table 7, citrus note): 4.08E−07 μg/l air; Odor Value [2, 10]: 4.54E+06 |
| CCCCC/C(C=O)=C\c1ccccc1 [(E)-2-PENTYL-3-PHENYL-2-PROPENAL] | – | – | 0.68 | Bottom | – | 3.64E−04 | 1.87E+03 | Volatility (μg/l air) ([1]; Table 7, citrus note): 0.68 μg/l air; Type [1, 9]: Bottom; Odor Threshold (μg/l air) ([2]; Table 7, citrus note): 3.64E−04 μg/l air; Odor Value [2, 10]: 1.87E+03 |
| O=C/C=C/c1ccccc1 [(E)-3-PHENYL-2-PROPENAL] | – | – | – | – | – | – | – | Type [1, 11]: Middle; Volatility ([1]; Table 10, woody note): 70.14 μg/l air; Odor Threshold ([2]; Table 10, woody note): 1.36E−03 μg/l air |
| CC(=O)OC/C=C/c1ccccc1 [(E)-3-PHENYL-2-PROPENYL ACETATE] | – | – | 20.47 | Bottom | – | 1.87E−04 | 1.10E+05 | – |
| CCC(=O)OC/C=C/c1ccccc1 [(E)-3-PHENYL-2-PROPENYL PROPANOATE] | – | – | 8.14 | Bottom | – | 1.28E−04 | 6.35E+04 | – |
| CCCCC/C=C/CCC=O [(E)-4-DECENAL] | – | – | – | – | – | – | – | Volatility (μg/l air) ([1]; Table 7, citrus note): 691.34 μg/l air; Type [1, 9]: Top; Odor Threshold (μg/l air) ([2]; Table 7, citrus note): 7.59E−05 μg/l air; Odor Value [2, 10]: 9.11E+06 |
| CCOCOC1CCCCCCCCCCC1 [(ETHOXYMETHOXY)CYCLODODECANE] | – | – | – | – | – | – | – | Type [1, 11]: Bottom; Volatility ([1]; Table 10, woody note): 6.63 μg/l air; Odor Threshold ([2]; Table 10, woody note): 8.90E−02 μg/l air |
